Laboratory results as given in ChEMBL document CHEMBL5352406 (Eur J Med Chem, 2022).

Columns and labels:
SW480 = test: Antiproliferative activity against human SW480 cells assessed as cell growth inhibition after 72 hrs by MTT assay; type: functional
A549 = test: Antiproliferative activity against human A549 cells assessed as cell growth inhibition after 72 hrs by MTT assay; type: functional
Cholinesterase = Cholinesterase (Equus caballus, UniProt P81908); test: Inhibition of equine serum BuChE using […] as substrate for 20 mins by Ellman's method
[1] = molecular target: Cyclin-dependent kinase 13/Cyclin-K (Homo sapiens) (UniProt Q14004+O75909); test: Inhibition of CDK13/Cyclin K (unknown origin) at 500 nM by ADP-Glo kinase assay relative to control; type: protein-complex assay
[2] = molecular target: Cyclin-Y/Cyclin-dependent kinase 16 (Homo sapiens) (UniProt Q00536+Q8ND76); test: Inhibition of CDK16/Cyclin Y (unknown origin) at 500 nM by ADP-Glo kinase assay relative to control; type: protein-complex assay
[3] = molecular target: CDK18/Cyclin Y (Homo sapiens) (UniProt Q07002+Q8ND76); test: Inhibition of CDK18/Cyclin Y (unknown origin) at 500 nM by ADP-Glo kinase assay relative to control; type: protein-complex assay
[4] = molecular target: CDK3/Cyclin E (Homo sapiens) (UniProt P24864+Q00526); test: Inhibition of CDK3/Cyclin E1 (unknown origin) at 500 nM by ADP-Glo kinase assay relative to control; type: protein-complex assay
[5] = molecular target: CDK6/cyclin D3 (Homo sapiens) (UniProt P30281+Q00534); test: Inhibition of CDK6/Cyclin D3 (unknown origin) at 500 nM by ADP-Glo kinase assay relative to control; type: protein-complex assay
[6] = molecular target: Cyclin-C/Cyclin-dependent kinase 19 (Homo sapiens) (UniProt Q9BWU1+P24863); test: Inhibition of CDK19/Cyclin C (unknown origin) at 500 nM by ADP-Glo kinase assay relative to control; type: protein-complex assay
HCT-116 [7] = test: Induction of apoptosis in human HCT-116 cells assessed as late apoptotic cells at 10 nM measured after 48 hrs by Annexin V-FITC/PI assay (reference value: 6.06%); type: functional
HCT-116 [8] = test: Induction of apoptosis in human HCT-116 cells assessed as early apoptotic cells at 20 nM measured after 48 hrs by Annexin V-FITC/PI assay (reference value: 3.16%); type: functional
HCT-116 [9] = test: Cell cycle arrest in human HCT-116 cells assessed as accumulation of cells at S phase at 20 nM measured after 48 hrs by flow cytometry (reference value: 31.43%); type: functional
[10] = Acute toxicity in Kunming mouse assessed as survival at 69 mg/kg, po measured for 2 weeks; type: organism-based; conditions: in vivo
[11] = Acute toxicity in Kunming mouse assessed as survival at 105 mg/kg, po measured for 2 weeks; type: organism-based; conditions: in vivo
[12] = Acute toxicity in Kunming mouse assessed as survival at 159 mg/kg, po measured for 2 weeks; type: organism-based; conditions: in vivo
[13] = Acute toxicity in Kunming mouse assessed as body weight change at 20 to 105 mg/kg, po measured for 2 weeks; type: organism-based; conditions: in vivo, 336 h, dose 20-105 mg/kg
[14] = Half life in Sprague-Dawley rat at 20 mg/kg, po; type: ADME, organism-based; conditions: in vivo
[15] = Tmax in Sprague-Dawley rat at 2 mg/kg, iv; type: ADME, organism-based; conditions: in vivo
[16] = Cmax in Sprague-Dawley rat at 2 mg/kg, iv; type: ADME, organism-based; design: dose 2 mg/kg, route iv; conditions: in vivo
[17] = Cmax in Sprague-Dawley rat at 20 mg/kg, po; type: ADME, organism-based; design: dose 20 mg/kg, route po; conditions: in vivo
[18] = AUC (0 to t) in Sprague-Dawley rat at 2 mg/kg, iv; type: ADME, organism-based; design: dose 2 mg/kg, route iv; conditions: in vivo
HCT-116 [19] = test: Antitumor activity against human HCT-116 cells xenografted in BALB/cA-nu mouse tumor model assessed as tumor volume growth inhibition at 10 mg/kg, intragastric administration for 21 days relative to control; type: functional; conditions: HCT-116, 504 h, route ig, time 21 day, read-out: GI
[20] = Toxicity in BALB/cA-nu mouse xenografted with human HCT116 cells assessed as behavioral changes at 10 mg/kg, intragastric administration for 21 days; type: organism-based, HCT-116; conditions: in vivo, po, 504 h, time 21 day
[21] = Toxicity in BALB/cA-nu mouse xenografted with human HCT116 cells assessed as body weight changes at 10 mg/kg, intragastric administration for 21 days; type: organism-based, HCT-116; conditions: in vivo, po, 504 h, time 21 day
[22] = molecular target: Cyclin-dependent kinase 1/cyclin B1 (Homo sapiens) (UniProt P06493+P14635); conditions: dose 500.0 nM
Description: Inhibition of CDK1/Cyclin B1 (unknown origin) at 500 nM by ADP-Glo kinase assay relative to control

[23] = molecular target: CDK1/Cyclin E (Homo sapiens) (UniProt P06493+P24864); conditions: dose 500.0 nM
Chain of CDK1/Cyclin E (Homo sapiens) (P06493 whole entry, looked up): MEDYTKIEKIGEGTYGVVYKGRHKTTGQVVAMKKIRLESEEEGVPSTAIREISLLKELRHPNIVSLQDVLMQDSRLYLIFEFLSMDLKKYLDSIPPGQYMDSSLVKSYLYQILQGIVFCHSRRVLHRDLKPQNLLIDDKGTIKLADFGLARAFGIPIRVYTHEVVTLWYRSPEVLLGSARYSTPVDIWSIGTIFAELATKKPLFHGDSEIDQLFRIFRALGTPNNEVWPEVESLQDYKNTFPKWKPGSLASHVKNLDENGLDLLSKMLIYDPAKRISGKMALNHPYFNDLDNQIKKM
Chain of CDK1/Cyclin E (Homo sapiens) (P24864 whole entry, looked up): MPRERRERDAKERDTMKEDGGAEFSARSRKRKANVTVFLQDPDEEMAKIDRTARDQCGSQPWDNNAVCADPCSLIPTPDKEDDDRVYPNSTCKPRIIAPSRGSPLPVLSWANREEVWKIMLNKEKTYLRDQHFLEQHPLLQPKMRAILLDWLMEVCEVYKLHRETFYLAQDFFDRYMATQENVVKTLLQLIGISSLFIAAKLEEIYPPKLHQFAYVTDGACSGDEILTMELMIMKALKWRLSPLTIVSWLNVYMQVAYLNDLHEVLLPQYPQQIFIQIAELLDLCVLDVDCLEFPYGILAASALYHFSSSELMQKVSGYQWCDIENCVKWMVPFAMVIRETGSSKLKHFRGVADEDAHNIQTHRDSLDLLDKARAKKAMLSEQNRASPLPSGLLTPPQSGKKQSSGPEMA
Description: Inhibition of CDK1/Cyclin E1 (unknown origin) at 500 nM by ADP-Glo kinase assay relative to control

Chain of Cyclin-dependent kinase 1/cyclin B1 (Homo sapiens) (P06493 whole entry, looked up): as the sequence (P06493 whole entry, looked up) above
Chain of Cyclin-dependent kinase 1/cyclin B1 (Homo sapiens) (P14635 whole entry, looked up): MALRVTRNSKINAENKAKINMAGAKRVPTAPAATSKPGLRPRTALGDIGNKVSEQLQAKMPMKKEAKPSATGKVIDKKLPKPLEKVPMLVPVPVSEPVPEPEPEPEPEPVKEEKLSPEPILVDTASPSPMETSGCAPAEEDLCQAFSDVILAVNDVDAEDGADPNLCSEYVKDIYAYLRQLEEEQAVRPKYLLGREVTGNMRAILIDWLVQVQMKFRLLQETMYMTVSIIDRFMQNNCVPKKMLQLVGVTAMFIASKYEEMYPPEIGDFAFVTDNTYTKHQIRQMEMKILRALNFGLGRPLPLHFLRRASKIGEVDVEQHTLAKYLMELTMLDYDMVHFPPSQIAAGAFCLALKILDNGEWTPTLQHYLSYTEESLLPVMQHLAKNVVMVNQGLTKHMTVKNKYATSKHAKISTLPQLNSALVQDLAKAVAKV
Chain of Cholinesterase (P81908 whole entry): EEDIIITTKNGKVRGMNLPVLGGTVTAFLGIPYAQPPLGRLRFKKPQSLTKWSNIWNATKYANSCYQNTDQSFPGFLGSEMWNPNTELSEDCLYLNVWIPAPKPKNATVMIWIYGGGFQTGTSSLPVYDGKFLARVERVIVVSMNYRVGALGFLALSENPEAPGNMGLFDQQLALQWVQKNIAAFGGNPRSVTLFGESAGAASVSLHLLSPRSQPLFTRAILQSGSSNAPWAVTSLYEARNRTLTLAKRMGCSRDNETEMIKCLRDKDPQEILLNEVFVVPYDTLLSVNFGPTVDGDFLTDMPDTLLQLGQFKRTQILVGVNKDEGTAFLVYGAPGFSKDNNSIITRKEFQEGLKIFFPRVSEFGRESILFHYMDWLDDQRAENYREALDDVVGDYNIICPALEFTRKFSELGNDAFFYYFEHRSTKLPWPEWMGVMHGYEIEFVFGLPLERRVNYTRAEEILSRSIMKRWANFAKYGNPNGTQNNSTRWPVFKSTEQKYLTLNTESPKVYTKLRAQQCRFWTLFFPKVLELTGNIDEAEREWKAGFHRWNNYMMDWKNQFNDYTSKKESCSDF
Chain of CDK3/Cyclin E (Homo sapiens) (P24864 whole entry, looked up): as the sequence (P24864 whole entry, looked up) above
Chain of CDK3/Cyclin E (Homo sapiens) (Q00526 whole entry, looked up): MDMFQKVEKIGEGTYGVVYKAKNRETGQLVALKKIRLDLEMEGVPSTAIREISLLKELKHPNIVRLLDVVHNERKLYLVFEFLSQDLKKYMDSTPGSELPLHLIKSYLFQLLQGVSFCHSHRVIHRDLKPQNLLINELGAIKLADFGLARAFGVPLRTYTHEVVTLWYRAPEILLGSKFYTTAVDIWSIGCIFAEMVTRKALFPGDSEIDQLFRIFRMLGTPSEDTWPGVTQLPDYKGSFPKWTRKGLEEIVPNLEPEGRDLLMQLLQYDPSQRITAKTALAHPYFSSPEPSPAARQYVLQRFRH
Chain of Cyclin-dependent kinase 13/Cyclin-K (Homo sapiens) (O75909 whole entry, looked up): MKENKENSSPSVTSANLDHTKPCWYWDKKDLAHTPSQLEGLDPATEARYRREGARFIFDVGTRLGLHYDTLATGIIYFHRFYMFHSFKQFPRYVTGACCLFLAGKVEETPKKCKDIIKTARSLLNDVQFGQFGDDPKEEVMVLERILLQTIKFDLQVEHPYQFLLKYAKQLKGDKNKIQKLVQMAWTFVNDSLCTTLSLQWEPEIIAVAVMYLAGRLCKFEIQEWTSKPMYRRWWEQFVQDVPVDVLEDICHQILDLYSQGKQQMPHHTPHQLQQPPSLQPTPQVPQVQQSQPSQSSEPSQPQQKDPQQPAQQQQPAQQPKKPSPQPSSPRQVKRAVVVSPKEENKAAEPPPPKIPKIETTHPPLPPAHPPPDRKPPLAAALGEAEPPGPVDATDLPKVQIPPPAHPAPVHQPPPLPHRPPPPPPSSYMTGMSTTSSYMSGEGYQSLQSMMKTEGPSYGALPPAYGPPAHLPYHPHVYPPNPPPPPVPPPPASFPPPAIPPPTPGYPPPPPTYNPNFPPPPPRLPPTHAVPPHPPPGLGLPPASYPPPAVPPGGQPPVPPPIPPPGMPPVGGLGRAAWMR
Chain of Cyclin-dependent kinase 13/Cyclin-K (Homo sapiens) (Q14004 whole entry, looked up): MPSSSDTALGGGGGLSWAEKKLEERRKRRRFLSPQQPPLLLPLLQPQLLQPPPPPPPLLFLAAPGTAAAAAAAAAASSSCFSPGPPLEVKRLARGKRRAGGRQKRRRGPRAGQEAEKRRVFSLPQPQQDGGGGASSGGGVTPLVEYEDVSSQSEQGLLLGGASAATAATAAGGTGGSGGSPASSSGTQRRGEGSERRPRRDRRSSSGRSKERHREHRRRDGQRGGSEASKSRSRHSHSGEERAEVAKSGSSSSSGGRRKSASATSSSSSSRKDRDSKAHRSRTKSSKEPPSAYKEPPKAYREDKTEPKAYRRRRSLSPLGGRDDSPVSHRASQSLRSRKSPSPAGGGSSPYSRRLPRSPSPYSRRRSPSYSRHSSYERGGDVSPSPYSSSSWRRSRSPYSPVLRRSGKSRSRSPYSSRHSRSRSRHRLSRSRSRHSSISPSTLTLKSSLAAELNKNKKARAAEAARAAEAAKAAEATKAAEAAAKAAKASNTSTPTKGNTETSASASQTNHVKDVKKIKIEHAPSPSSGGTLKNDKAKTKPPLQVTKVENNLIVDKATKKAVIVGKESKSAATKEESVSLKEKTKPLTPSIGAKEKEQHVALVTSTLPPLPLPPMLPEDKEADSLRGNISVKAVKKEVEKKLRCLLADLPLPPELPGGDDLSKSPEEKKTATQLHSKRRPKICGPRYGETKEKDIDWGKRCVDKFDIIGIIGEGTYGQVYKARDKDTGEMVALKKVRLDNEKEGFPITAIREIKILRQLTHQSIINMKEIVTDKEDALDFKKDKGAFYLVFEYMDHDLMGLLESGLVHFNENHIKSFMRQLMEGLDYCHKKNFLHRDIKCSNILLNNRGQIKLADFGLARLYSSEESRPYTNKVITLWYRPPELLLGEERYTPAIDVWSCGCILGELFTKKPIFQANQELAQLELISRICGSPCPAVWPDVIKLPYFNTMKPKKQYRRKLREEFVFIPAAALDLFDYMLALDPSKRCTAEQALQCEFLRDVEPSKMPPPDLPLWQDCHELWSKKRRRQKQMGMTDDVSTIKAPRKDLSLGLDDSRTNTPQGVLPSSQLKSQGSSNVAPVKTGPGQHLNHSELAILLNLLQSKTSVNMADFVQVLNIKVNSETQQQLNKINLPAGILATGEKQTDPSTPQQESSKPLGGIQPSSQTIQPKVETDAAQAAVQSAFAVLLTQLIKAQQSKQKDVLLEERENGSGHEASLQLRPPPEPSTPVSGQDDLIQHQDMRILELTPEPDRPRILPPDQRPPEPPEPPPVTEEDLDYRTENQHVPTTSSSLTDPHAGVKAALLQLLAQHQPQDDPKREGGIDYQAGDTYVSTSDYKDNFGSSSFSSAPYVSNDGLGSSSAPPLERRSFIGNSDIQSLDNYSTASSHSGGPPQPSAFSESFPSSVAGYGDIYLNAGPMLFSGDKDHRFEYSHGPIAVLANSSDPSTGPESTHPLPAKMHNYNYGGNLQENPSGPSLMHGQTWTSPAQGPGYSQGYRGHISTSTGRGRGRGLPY

Cl.N[C@H]1CCN(c2c3c(nc4ccc(-c5ccnc(NC(=O)C6CC6)n5)cc24)CCCCC3)C1
GI50 (SW480): 13 nM | GI50 (A549): 9 nM | IC50 (Cholinesterase): 2770 nM | inhibition [1]: 80.9% | inhibition [2]: 76.1% | inhibition [3]: 68.1% | inhibition [4]: 65.5% | inhibition [5]: 16.6% | inhibition [6]: 12.9% | Activity (HCT-116 [7]): ~7.47% | Activity (HCT-116 [8]): 32.6% | Activity (HCT-116 [9]): 49.38% | survival at 336 h [10]: 100% | survival at 336 h [11]: 50% | survival at 336 h [12]: 0% | Activity [13]: Non-Toxic | half-life [14]: 106 min | Tmax [15]: 4.98 min | Cmax [16]: 206 ng/mL | Cmax [17]: 67.8 ng/mL | AUC(0-t) [18]: 110 ng·h/mL | inhibition in vivo at 10 mg/kg (HCT-116 [19]): 47.7% | Activity [20]: Non-Toxic | Activity [21]: Non-Toxic | inhibition [22]: 77.3% | inhibition [23]: 48.6%
